Drawing on ChEMBL document CHEMBL4699508, “Bioactivity-Guided Discovery of Human Carboxylesterase Inhibitors from the Roots of Paeonia lactiflora” (J Nat Prod, 2020), this text covers Ratio IC50 and IC50 for nine compounds.

pIC50: −log10 of the molar value.

Test [1] is filed under the species Homo sapiens. Kind of test: Selectivity ratio of IC50 for inhibition of CES2A1 in human liver microsomes to IC50 for CES1A1 in human liver microsomes. The note with it: Microsome. In general terms: Microsomes from liver hold many membrane-bound enzymes, among them those of drug oxidation.
In test [2] the target is T1, Liver carboxylesterase 1 (Homo sapiens, UniProt P23141).
T1 sequence (P23141 whole entry): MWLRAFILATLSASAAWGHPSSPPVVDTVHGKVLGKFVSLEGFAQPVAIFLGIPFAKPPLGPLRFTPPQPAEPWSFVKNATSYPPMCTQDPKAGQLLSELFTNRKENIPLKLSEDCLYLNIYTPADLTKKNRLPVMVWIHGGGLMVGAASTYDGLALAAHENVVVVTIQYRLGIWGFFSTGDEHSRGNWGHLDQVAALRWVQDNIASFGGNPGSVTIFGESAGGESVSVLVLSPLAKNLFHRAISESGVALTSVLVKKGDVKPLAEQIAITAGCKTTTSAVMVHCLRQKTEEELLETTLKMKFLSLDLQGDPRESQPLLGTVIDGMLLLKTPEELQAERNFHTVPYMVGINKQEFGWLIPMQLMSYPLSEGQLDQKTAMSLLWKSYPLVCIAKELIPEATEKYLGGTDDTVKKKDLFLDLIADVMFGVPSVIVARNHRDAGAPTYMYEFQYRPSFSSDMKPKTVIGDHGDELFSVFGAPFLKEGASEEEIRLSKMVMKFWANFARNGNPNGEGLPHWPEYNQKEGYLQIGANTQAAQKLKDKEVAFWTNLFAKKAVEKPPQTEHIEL
Nature of the test: Inhibition of CES1A1 in human liver microsomes using D-luciferin methyl ester as substrate preincubated for 10 mins followed by substrate addition and measured after 10 mins by fluorescence assay.

Consider `C[C@H]1[C@H](C)CC[C@]2(C(=O)O)CC[C@]3(C)C(=CC[C@@H]4[C@@]5(C)CC[C@H](O)C(C)(C)[C@@H]5CC[C@]43C)[C@H]12` [URSOLIC ACID], for which, in test [1], the Ratio IC50 worked out at 30. In addition, in test [2], the negative logarithm of the IC50 (pIC50) was 7.00.

As to `C=C(C)[C@@H]1CC[C@]2(C)CC[C@]3(C)[C@H](CC[C@@H]4[C@@]5(C)CC[C@H](O)C(C)(C)[C@@H]5CC[C@]43C)[C@@H]12` [LUPEOL], the Ratio IC50 in test [1] amounted to 30. The compound also had a pIC50 in test [2] of 7.00. `CC1(C)CC[C@]2(C)CC[C@]3(C)C(=CC[C@@H]4[C@@]5(C)CCC(=O)C(C)(C)[C@@H]5CC[C@]43C)[C@@H]2C1` gave a pIC50 in test [2] of 7.00. For `C=C(C)[C@@H]1CC[C@]2(C(=O)O)CC[C@]3(C)[C@H](CC[C@@H]4[C@@]5(C)CC[C@H](O)[C@@](C)(CO)[C@@H]5CC[C@]43C)[C@@H]12`, in test [1], the Ratio IC50 was found to be 30. Also, the pIC50 in test [2] is 7.00. For `C=C1CC[C@]2(C(=O)O)CC[C@]3(C)C(=CC[C@@H]4[C@@]5(C)CC[C@H](O)[C@@](C)(CO)[C@@H]5CC[C@]43C)[C@@H]2C1`, the Ratio IC50 in test [1] is 30. The pIC50 in test [2] is 7.00.

In the case of `CC1(C)CC[C@]2(C(=O)O)CC[C@]3(C)C(=CC[C@@H]4[C@@]5(C)CC[C@H](O)C(C)(C)[C@@H]5CC[C@]43C)[C@@H]2C1` [OLEANOLIC_ACID], the Ratio IC50 in test [1] was found to be 30. Moreover, the pIC50 in test [2] is 7.00. Taken in the same sequence, the figures for `C=C1CC[C@]2(C(=O)O)CC[C@]3(C)C(=CC[C@@H]4[C@@]5(C)CC[C@@H]6OC(C)(C)OC[C@@]6(C)[C@@H]5CC[C@]43C)[C@@H]2C1` were 30 and 7.00. Taken in the same sequence, the figures for `C=C(C)[C@@H]1CC[C@]2(C(=O)O)CC[C@]3(C)[C@H](CC[C@@H]4[C@@]5(C)CC[C@@H]6OC(C)(C)OC[C@@]6(C)[C@@H]5CC[C@]43C)[C@@H]12` were 30 and 7.00. For the compound `CC1(C)CC[C@]2(C(=O)O)CC[C@]3(C)C(=CC[C@@H]4[C@@]5(C)CC[C@@H]6OC(C)(C)OC[C@@]6(C)[C@@H]5CC[C@]43C)[C@@H]2C1`, the Ratio IC50 in test [1] turned out to be 30. Further, the pIC50 in test [2] was 7.00.

In general, pIC50 refers to the IC50 on a negative log10 scale, so that one unit is a factor of ten. Lower therefore signals a large IC50.
